Active and inactive are the calls of the source. The calls are words filed in the database; no cut-off is given here.
The compounds below were run against T1, Tyrosinase (Agaricus bisporus) (UniProt O42713) (assay: Inhibition of mushroom tyrosinase at 50 uM preincubated for 5 mins before addition of L-DOPA measured after 10 mins).
T1 sequence (whole entry): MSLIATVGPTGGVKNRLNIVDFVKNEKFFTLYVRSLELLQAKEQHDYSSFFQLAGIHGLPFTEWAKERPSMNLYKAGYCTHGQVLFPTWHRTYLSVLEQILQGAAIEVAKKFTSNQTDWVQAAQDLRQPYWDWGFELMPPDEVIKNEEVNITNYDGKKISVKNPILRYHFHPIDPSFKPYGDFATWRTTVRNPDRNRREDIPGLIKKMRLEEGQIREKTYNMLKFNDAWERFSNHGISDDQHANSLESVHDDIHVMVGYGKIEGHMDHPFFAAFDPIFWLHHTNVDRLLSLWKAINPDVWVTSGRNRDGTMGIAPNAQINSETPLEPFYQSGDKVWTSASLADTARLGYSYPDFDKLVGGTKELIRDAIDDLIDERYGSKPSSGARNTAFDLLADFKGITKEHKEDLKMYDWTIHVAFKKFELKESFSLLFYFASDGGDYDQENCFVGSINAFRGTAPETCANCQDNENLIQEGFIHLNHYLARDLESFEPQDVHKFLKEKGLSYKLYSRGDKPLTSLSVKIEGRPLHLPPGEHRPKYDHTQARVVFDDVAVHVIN

| SMILES | inhibition |
| --- | --- |
| c1ccc2c(Cc3nnc4sc(-c5nccc6ccccc56)nn34)cccc2c1 | inactive |
| Clc1ccccc1-c1nnc(SCCN2CCCCC2)o1 | inactive |
| Clc1ccccc1-c1nnc(SCCN2CCOCC2)o1 | inactive |
| c1ccc(-c2nnc(SCCN3CCCCC3)o2)cc1 | inactive |
| c1ccc2c(Cc3nnc(SCCN4CCCCC4)o3)cccc2c1 | inactive |

Further lines, results first:

| inhibition | SMILES |
| --- | --- |
| inactive | Cc1cc(C)n(-c2ccc(-c3nn4c(-c5ccccc5)nnc4s3)cc2)n1 |
| inactive | c1ccc(-c2nnc3sc(-c4nccc5ccccc45)nn23)cc1 |
| inactive | Cc1cc(C)n(-c2ccc(-c3nn4c(-c5ccccc5Cl)nnc4s3)cc2)n1 |
| inactive | Clc1ccccc1-c1nnc2sc(-c3cccnc3)nn12 |
| inactive | Cc1cc(C)n(-c2ccc(-c3nn4c(Cc5cccc6ccccc56)nnc4s3)cc2)n1 |
| inactive | Clc1ccccc1-c1nnc2sc(-c3nccc4ccccc34)nn12 |

These compounds were tested against T2, Tyrosinase (Agaricus bisporus, UniProt O42713).
T2 sequence (O42713 whole entry): T1 sequence (whole entry)
Description: Inhibition of mushroom tyrosinase preincubated for 5 mins before addition of L-DOPA measured after 10 mins

| IC50 | SMILES |
| --- | --- |
| 1490 nM | CN1CCN(Cn2nc(Cc3cccc4ccccc34)oc2=S)CC1 |
| 870 nM | S=c1oc(Cc2cccc3ccccc23)nn1CN1CCNCC1 |
| 1330 nM | S=c1oc(Cc2cccc3ccccc23)nn1CN1CCCC1 |
| 1340 nM | S=c1oc(Cc2cccc3ccccc23)nn1CN1CCOCC1 |
| 970 nM | S=c1oc(Cc2cccc3ccccc23)nn1CN1CCCCC1 |

Source: ChEMBL document CHEMBL1158619, “Synthesis and biological activity of oxadiazole and triazolothiadiazole derivatives as tyrosinase inhibitors” (Bioorg Med Chem Lett, 2010)
